Assay results reported in ChEMBL document CHEMBL1138157, “Immuno-suppressive effect of blocking the CD28 signaling pathway in T-cells by an active component of Echinacea found by a novel pharmaceutical screening method” (2006).
Calls of active or inactive are those of the source. The calls are words filed in the database; no cut-off is given here.

Tests used:
Jurkat [1] = test: Inhibition of anti-CD3 plus anti-CD28-induced IL2 secretion in Jurkat cells; type: functional, Homo sapiens
Jurkat [2] = test: Inhibition of PMA plus ionomycin-induced IL2 secretion in Jurkat cells; type: functional, cell-based; settings: Homo sapiens
Jurkat [3] = test: Cytotoxic activity against Jurkat cells upto 500 ug/mL by MTT assay; type: functional, cell-based; settings: Homo sapiens

In the case of O=C(/C=C/c1ccc(O)c(O)c1)O[C@@H]1C[C@@](OC(=O)/C=C/c2ccc(O)c(O)c2)(C(=O)O)C[C@@H](O)[C@@H]1O [CYNARIN], the Inhibition (Jurkat [1]) is reported as -53%, the Activity (Jurkat [2]) is reported as “inactive” and the Activity (Jurkat [3]) is reported as “Non-toxic”.
